# According to patent US20250333683A1, “A METHOD AND SYSTEM FOR SIMULATING STEM CELL DIFFERENTIATION DYNAMICS” (CellVoyant Technologies Limited, priority 2024, published 2025):
# Test system: human pluripotent cells (hPCs)
# Assay: Observed ground truth mesoderm differentiation (Brachyury immunofluorescence)
# Format: cell-based
# Method: Stem cell differentiation: To differentiate cells into cardiac mesoderm cells, cardiomyocytes and/or endothelial intermediate, protocol described in Giacomelli et al., [1] was adapted.
# Briefly, human pluripotent cells (hPCs) were seeded, as a monolayer culture, into 96-well imaging plate in BPLE basal media for twenty-four hours, with the bovine serum albumin (BSA) polyvinylalcohol essential lipids (BPLE) basal media being supplemented with 20 ng/ml of ActinvinA (Peprotech, 120-14E-2 μG), 20 ng/ml of BMP4 (Peprotech, 120-05ET-2 μG) and varying concentrations of CHIR99201 (Selleckchem, S1263). CHIR99021 was removed randomly after either 24 or 48 hours of differentiation, to determine the effect of CHIR99021 on mesoderm differentiation rates.
# The day after, the primary antibody was washed out, and the cells were incubated with the fluorescence-conjugated secondary antibody (1:1000) for 1 hour at room temperature. DAPI solution was used to detect nuclei.
# Ground truth for fate forecasting was inferred by using Cellpose to segment individual cell nuclei on the DAPI channel. A Multi-Otsu threshold was carried out on the Brachury channel to separate the images into foreground and background. The total number of nucleii detected was recorded and the two sets of masks were correlated to determine the proportion of cells that were positive for the immunofluorescence marker. […]
smiles,measurement,setting,value
Cc1c[nH]c(-c2cnc(NCCNc3ccc(C#N)cn3)nc2-c2ccc(Cl)cc2Cl)n1 [CHIR99021],observed ground truth proportion of cells acquiring the mesodermal cell fate,"CHIR99021 0.93 μM, applied for 24 hours",very low proportion
same,observed ground truth amount of Brachury positive cells after removal of CHIR99021,"CHIR99021 1.93 μM, removed after 48 hours",decrease in the amount of Brachury positive cells
